Experimental data: patent US20190054110A1, “MODULATORS OF CCR9 FOR TREATING TUMOR RESISTANCE TO IMMUNE RESPONSES” (DEUTSCHES KREBSFORSCHUNGSZENTRUM STIFTUNG DES ÖFFENTLICHEN …, priority 2016, published 2019)

Tests used:
CCR9+ tumor cells = experiment: Transwell migration assay of CCR9+ tumor cells toward CCL25; assay type: cell-based
MCF7 cells = experiment: Chromium-release cytotoxicity assay, MCF7 cells lysed by survivin-specific T cells; assay type: cell-based, human; details: versus control / CCR9 knockdown
Description: FIG. 1: CCR9 knockdown sensitizes tumor cells to immune attack (A) MCF7 cells were transfected with the described siRNA sequences and harvested after 72 h for mRNA and protein estimation using RT-PCR (upper) and immunoblot (lower) analysis, respectively. GAPDH and beta-actin were used as controls for RNA and protein normalization, respectively. (B) Luc-CTL cytotoxicity assay with PBMC-derived CTLs and bi-specific Ab as effector population and MCF7 as target cells, which were transfected with individual (s1-s4) or pooled CCR9 siRNA sequences. PD-L1 and non-specific control siRNAs were used as positive and negative controls, respectively, for CTL-mediated cytotoxicity. (C, D) Cr-release assay showing % specific lysis of MCF7 cells by survivin-specific T cells at different ratios upon CCR9 knockdown (C) or overexpression (D). MCF7 cells were transfected with either CCR9 siRNA s1 (Δ), pooled siRNA sequences (◯), positive control PD-L1 (□), and non-specific control siRNA (▪) (C) or with pCMV6-AC-His control vector (▪) and pCMV6-AC-His-CCR9 expression construct (∘) (D) 72 h prior to the assay. […] Error bars denote ±SEM, and statistical significance was calculated using the unpaired, two-tailed Student's t-test. […]

Substance: pertussis toxin
- migration of CCR9+ tumor cells toward CCL25 (CCR9+ tumor cells): inhibited
- MCF7 lysis by survivin-specific CTL (MCF7 cells): did not elicit elevated tumor lysis
